Measurements taken from US20170360761A1, “Selective Inhibition of HDAC6 and HDAC8, and Methods of Use Thereof” (Reaction Biology Corp., priority 2016, published 2017).

Legend:
Type in all cases: cell-based
KMS-11 cells = assay: MTS cell viability assay, KMS-11 cells; settings: Homo sapiens, 72 hours incubation
Procedure: (§1) About 2000-5000 of U266 cells, REH cells, K562 cells, KMS-11 cells, RPMI-8226 cells and MM. 1S cells were incubated with RBC-2008 in 384 well assay plates at 37° C., 5% CO2 for 72 hours. An amount of 5 μl of CellTiter 96® AQueous One Solution Reagent (MTS assay reagent) from Promega was added to each well and incubated for 3 hours. Absorbance at 492 nm was recorded by Envision Multilabel Reader. The IC50 curves were plotted and the IC50 values were calculated using the GraphPad Prism 4 program based on sigmoidal dose-response equation. […] 1S cells respectively (FIG. 8).

MM. 1S cells = assay: MTS cell viability assay, MM. 1S cells; settings: Homo sapiens, MM1.S, 72 hours incubation
Procedure: as §1

K562 cells = assay: MTS cell viability assay, K562 cells; settings: Homo sapiens, 72 hours incubation
Procedure: The effects of RBC-2008 on the viability of human tumor cell were assessed in an MTS assay. K562 cells were incubated with RBC-2008 in 384 well assay plates at 37° C., 5% CO2 for 72 hours. 5 μl of CellTiter 96® AQueous One Solution Reagent (MTS assay reagent) from Promega was added to each well and incubated for 3 hours. Absorbance at 492 nm was recorded using an Envision Multilabel Reader. The IC50 curves were plotted and the IC50 values were calculated using the GraphPad Prism 4 program based on a sigmoidal dose-response equation (FIG. 5).
as §1

RPMI-8226 cells = assay: MTS cell viability assay, RPMI-8226 cells; settings: Homo sapiens, 72 hours incubation
Procedure: as §1

REH cells = assay: MTS cell viability assay, REH cells; settings: Homo sapiens, 72 hours incubation
Procedure: as §1

U266 cells = assay: MTS cell viability assay, U266 cells; settings: Homo sapiens, U-266, 72 hours incubation
Procedure: as §1

For `O=C(NO)c1ccc(Cn2sc3ccccc3c2=O)cc1` [RBC-2008], the IC50 (KMS-11 cells) was 2500 nM, the IC50 (MM. 1S cells) was 2100 nM and the IC50 (K562 cells) was 13.1 µM. For the same molecule, the IC50 (RPMI-8226 cells) was 3.8 µM, the IC50 (REH cells) was 1800 nM and the IC50 (U266 cells) was 14.5 µM.
